The numbers were not newly measured in patent US5559147A, “Aromatic fluorine-containing organotin compounds and anti-tumour composition” (Pharmachemie B.V., priority 1994, dated 1996), which cites them from elsewhere.

The test system of data set [1] is WiDR, a colon carcinoma. The conditions noted are these: earlier work.
The subject of data set [2] is two human tumour cell lines, MCF-7 and WiDR. Conditions: in words.
The test system of data set [3] is MCF-7, a mammary tumour. Conditions: earlier work.

Consider `CCC[CH2][Sn]([CH2]CCC)([O]C(=O)c1cccc(F)c1F)[O]C(=O)c1cccc(F)c1F` [(2,3-F2 C6 H3 CO2)2 SnBu2], for which the ID50 in data set [1] is 0.283 µg/mL; in data set [3] it was 0.023 µg/mL. Moreover, in data set [2], the “ID50 compared with reference drug” value is “comparable to mitomycin C”.
Consider `CCC[CH2][Sn]([CH2]CCC)([O]C(=O)c1ccc(F)cc1)[O]C(=O)c1ccc(F)cc1` [(4-F-C6 H4 CO2)2 SnBu2], for which the ID50 in data set [1] was 0.309 µg/mL; in data set [3] it was 0.09 µg/mL. Also, the “ID50 compared with reference drug” value in data set [2] is recorded as “comparable to those observed for etoposide”.
Regarding `CCC[CH2][Sn+2][CH2]CCC.O=C([O-])c1c(F)c(F)c(F)c(F)c1C(=O)[O-]` [Di-n-butyltintetrafluorophthalate], the ID50 in data set [1] was 0.068 µg/mL; in data set [3], 0.051 µg/mL.
In the case of {(2,3,4,5-F4 C6 HCO2 SnBu2)2 O}2, the ID50 in data set [1] was 0.25 µg/mL; in data set [3], 0.035 µg/mL.
Turning to {(2,3,6-F3 C6 H3 CO2 SnBu2)2 O}2, the ID50 in data set [1] was 0.2 µg/mL; in data set [3] it was 0.013 µg/mL.
As for {(2,3-F2 C6 H3 CO2 SnBu2)2 O}2, the results for the ID50 in data set [1] and in data set [3] were 0.12 µg/mL and 0.009 µg/mL, respectively. Besides, in data set [2], the “ID50 compared with reference drug” value is “comparable to mitomycin C”.
Regarding {(2-F-C6 H4 CH=CHC2 SnBu2)2 O}2, the values for the ID50 in data set [1] and in data set [3] were 0.368 µg/mL and 0.028 µg/mL, respectively.
With {(4-F-C6 H4 CH2 CO2 SnBu2)2 O}2, the ID50 was 0.268 µg/mL in data set [1] and 0.038 µg/mL in data set [3].
Regarding {(4-F-C6 H4 CO2 SnBu2)2 O}2, the ID50 in data set [1] was 0.36 µg/mL; in data set [3], 0.081 µg/mL. The “ID50 compared with reference drug” value in data set [2] is “comparable to those observed for etoposide”.
